The text below walks through data of patent US4782043A, “Renin inhibitors containing a C-terminal amide cycle” (Merck & Co., Inc., priority 1985, dated 1988).

Peptide text beside a SMILES is read from it.

As usually defined, the Ki is the equilibrium dissociation constant of an inhibitor or competing ligand from its target. Higher therefore signals weaker binding.

Sequence of hog kidney renin (A0A287APG1 67-407): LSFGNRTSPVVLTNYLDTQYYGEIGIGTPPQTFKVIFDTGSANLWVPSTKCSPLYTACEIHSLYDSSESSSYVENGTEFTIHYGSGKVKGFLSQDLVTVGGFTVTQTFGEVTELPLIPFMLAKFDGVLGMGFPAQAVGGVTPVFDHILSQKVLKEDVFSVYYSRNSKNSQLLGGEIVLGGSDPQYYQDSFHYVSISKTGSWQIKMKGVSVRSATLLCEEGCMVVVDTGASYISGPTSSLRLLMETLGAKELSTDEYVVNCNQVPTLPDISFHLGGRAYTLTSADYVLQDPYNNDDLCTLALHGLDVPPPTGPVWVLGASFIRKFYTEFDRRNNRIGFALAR

For the first experiment, the target named is hog kidney renin (Sus scrofa, UniProt A0A287APG1). Nature of the experiment: Hog renin inhibition. In kind it is biochemical. As to conditions: pH 7.3, concentration producing 50% inhibition of renin activity, read-out: I50. As for the experimental part:
An assay was carried out in order to determine the inhibitory potency of the peptides of the present invention. The assay measured the inhibition of hog kidney renin, and was in accordance with the procedure described in Rich et al., J. Med. Chem. 23: 27, 1980, except that a pH of 7.3 was used. The results of the assay, illustrated in the table below, are expressed as I50 values, which refers to the concentration of peptide inhibitor necessary to produce 50% inhibition of renin activity. This I50 value is obtained typically by plotting data from four inhibitor concentrations. Pepstatin was used as an active control.
`CC(C)C[C@@H]1NC(=O)C[C@H](O)[C@H](CC(C)C)NC(=O)[C@@H](NC(=O)[C@H](Cc2ccccc2)NC(=O)[C@@H]2CCCN2C(=O)[C@H](Cc2c[nH]cn2)NC(=O)C(C)C)CCCCNC(=O)CNC(=O)[C@H](Cc2ccccc2)NC1=O` (HELM PEPTIDE1{[CC(C)C(=O)[*:2]].H.P.F.K.[CC(C)C[C@H](N[*:1])[C@@H](O)CC(=O)[*:2]].L.F.G}$PEPTIDE1,PEPTIDE1,5:R3-9:R2$$$V2.0): the IC50 worked out at 1700 nM.

In the case of `CC(C)C[C@@H]1NC(=O)C[C@H](O)[C@H](CC(C)C)NC(=O)[C@@H](NC(=O)[C@H](Cc2ccccc2)NC(=O)[C@@H]2CCCN2C(=O)[C@H](Cc2c[nH]cn2)NC(=O)C(C)C)CCNC(=O)CNC(=O)[C@H](Cc2ccccc2)NC1=O` (HELM PEPTIDE1{[CC(C)C(=O)[*:2]].H.P.F.[Dab].[CC(C)C[C@H](N[*:1])[C@@H](O)CC(=O)[*:2]].L.F.G}$PEPTIDE1,PEPTIDE1,5:R3-9:R2$$$V2.0), the IC50 came to 7100 nM.

Regarding `CC(C)C[C@@H]1NC(=O)C[C@H](O)[C@H](CC(C)C)NC(=O)[C@@H](NC(=O)[C@H](Cc2ccccc2)NC(=O)[C@@H]2CCCN2C(=O)[C@H](Cc2c[nH]cn2)NC(=O)C(C)C)CCCNC(=O)CNC(=O)[C@H](Cc2ccccc2)NC1=O` (HELM PEPTIDE1{[CC(C)C(=O)[*:2]].H.P.F.[Orn].[CC(C)C[C@H](N[*:1])[C@@H](O)CC(=O)[*:2]].L.F.G}$PEPTIDE1,PEPTIDE1,5:R3-9:R2$$$V2.0), the IC50 is 2800 nM.

As for `CC(C)C[C@@H]1NC(=O)C[C@H](O)[C@H](CC(C)C)NC(=O)[C@@H](NC(=O)[C@H](Cc2ccccc2)NC(=O)[C@@H]2CCCN2C(=O)[C@H](Cc2c[nH]cn2)NC(=O)C(C)C)CCCNC(=O)[C@H](Cc2ccccc2)NC1=O` (HELM PEPTIDE1{[CC(C)C(=O)[*:2]].H.P.F.[Orn].[CC(C)C[C@H](N[*:1])[C@@H](O)CC(=O)[*:2]].L.F}$PEPTIDE1,PEPTIDE1,5:R3-8:R2$$$V2.0), the IC50 came to 24000 nM.

Take `CC(C)C[C@@H]1NC(=O)C[C@H](O)[C@H](Cc2ccccc2)NC(=O)[C@@H](NC(=O)C(CCCc2ccccc2)Cc2ccccc2)CCCCNC(=O)[C@H](Cc2ccccc2)NC1=O` (single isomer, unassigned) [drawing 38]: the IC50 came to 26 nM.

For `CC(C)C[C@@H]1NC(=O)C[C@H](O)[C@H](CC(C)C)NC(=O)[C@@H](NC(=O)[C@H](Cc2ccccc2)NC(=O)[C@@H]2CCCN2C(=O)[C@H](Cc2c[nH]cn2)NC(=O)C(C)C)CCCCNC(=O)[C@H](Cc2ccccc2)NC1=O` [drawing 31] (HELM PEPTIDE1{[CC(C)C(=O)[*:2]].H.P.F.K.[CC(C)C[C@H](N[*:1])[C@@H](O)CC(=O)[*:2]].L.F}$PEPTIDE1,PEPTIDE1,5:R3-8:R2$$$V2.0), the IC50 is 230 nM.

On to `CC(C)C[C@@H]1NC(=O)C[C@H](O)[C@H](CC(C)C)NC(=O)[C@@H](NC(=O)[C@H](Cc2ccccc2)NC(=O)OC(C)(C)C)CCCCNC(=O)[C@H](Cc2ccccc2)NC1=O` [drawing 37] (HELM PEPTIDE1{[CC(C)(C)OC(=O)[*:2]].F.K.[CC(C)C[C@H](N[*:1])[C@@H](O)CC(=O)[*:2]].L.F}$PEPTIDE1,PEPTIDE1,3:R3-6:R2$$$V2.0), for which the IC50 worked out at 450 nM.

For another experiment, the target named is T1, human kidney renin (Homo sapiens, UniProt P00797).
T1 construct: human kidney renin purified as described in Bangham; from tissue; host or cells: human kidney
T1 sequence (P00797 67-406): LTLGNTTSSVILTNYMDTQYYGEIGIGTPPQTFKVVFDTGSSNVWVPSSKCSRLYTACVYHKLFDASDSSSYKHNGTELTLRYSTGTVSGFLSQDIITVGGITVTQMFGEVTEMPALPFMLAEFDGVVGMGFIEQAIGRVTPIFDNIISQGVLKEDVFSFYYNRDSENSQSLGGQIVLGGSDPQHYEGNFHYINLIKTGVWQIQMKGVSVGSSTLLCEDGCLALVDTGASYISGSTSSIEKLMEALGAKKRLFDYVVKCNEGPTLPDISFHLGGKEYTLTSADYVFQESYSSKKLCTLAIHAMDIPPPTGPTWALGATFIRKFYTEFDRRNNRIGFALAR
Kind of experiment: Human renin inhibition. The conditions noted are these: purified human kidney renin; dissociation constant of enzyme-inhibitor complex. In kind it is biochemical. As for the experimental part:
An assay was carried out in order to determine the inhibitory potency of the peptides of the present invention. The assay measured the inhibition of human kidney renin purified as described in Bangham, D. R., Robertson, I., Robinson, J. I. S., Robinson, C. J., and Tree, M., Clinical Science and Molecular Medicine, 48 (Supp. 2): 136s-159s (1975), and further purified by affinity chromatography on pepstatin-aminohexyl-Sepharase as describe in Poe, M., Wu., J. K., Florance, J. R., Radkey, J. A., Bennett, C. D., and Hoagsteen, K., J. Biol. Chem. (1982, in press). The assay was also in accordance with Poe et al. cited above. Results are expressed as KI values, which refer to the dissociation constant of the inhibited enzyme-inhibitor complex. This KI value was obtained as described above. Pepstatin was used as an active control.
Turning to `CC(C)C[C@@H]1NC(=O)C[C@H](O)[C@H](Cc2ccccc2)NC(=O)[C@@H](NC(=O)C(CCCc2ccccc2)Cc2ccccc2)CCCCNC(=O)[C@H](Cc2ccccc2)NC1=O` (single isomer, unassigned) [drawing 41], affinity was put at a Ki of 190 nM.

In turn, `CC(C)C[C@@H]1NC(=O)C[C@H](O)[C@H](CC(C)C)NC(=O)[C@@H](NC(=O)[C@H](Cc2ccccc2)NC(=O)[C@@H]2CCCN2C(=O)[C@H](Cc2c[nH]cn2)NC(=O)C(C)C)CCCCNC(=O)[C@H](Cc2ccccc2)NC1=O` [drawing 39] (HELM PEPTIDE1{[CC(C)C(=O)[*:2]].H.P.F.K.[CC(C)C[C@H](N[*:1])[C@@H](O)CC(=O)[*:2]].L.F}$PEPTIDE1,PEPTIDE1,5:R3-8:R2$$$V2.0) returned an inhibition constant (Ki) of 55 nM.

In the case of `CC(C)C[C@@H]1NC(=O)C[C@H](O)[C@H](CC(C)C)NC(=O)[C@@H](NC(=O)[C@H](Cc2ccccc2)NC(=O)OC(C)(C)C)CCCCNC(=O)[C@H](Cc2ccccc2)NC1=O` [drawing 40] (HELM PEPTIDE1{[CC(C)(C)OC(=O)[*:2]].F.K.[CC(C)C[C@H](N[*:1])[C@@H](O)CC(=O)[*:2]].L.F}$PEPTIDE1,PEPTIDE1,3:R3-6:R2$$$V2.0), the affinity corresponds to a Ki of 64 nM. This Ki and that of the compound before are within 1.5-fold of each other.

In another experiment the test system is hog renin.
Experiment: not given
As to conditions: nephrectomized rats after injection of hog renin (Gross et al. 1971); cited from earlier work.
Pepstatin: the “blood pressure in vivo” value is “reduce blood pressure in vivo”.
